Experimental findings from EP0203559A1, “Penicillin derivative containing naphthyridine” (AUSONIA FARMACEUTICI S.r.l., priority 1985, dated 1986) are described below.

The subject of one series is Staph. aureus. Nature of the series: In vitro antibacterial activity (MIC), compound I versus 1:1 combination with amoxicillin (Table 3). In kind it is cell-based. Conditions: Staphylococcus aureus, 8 strains, average value, compound I alone.
A further series deals with Citrob. freundii. Described as above. In kind it is cell-based. Conditions: Citrobacter freundii, 2 strains, average value, compound I alone.
The test system of series [1] is CSH28F'lacproxZM46 (plasmid F'lacpro, Inc FI). Kind of series: Inhibition of plasmid transfer by conjugation. In kind it is cell-based, E. coli. As to conditions: Escherichia coli. The text has this: (§1) Another advantageous feature of compound I resides in its ability to inhibit the transfer of bacterial plasmids by conjugation, said ability being shared by other compounds of quinoline structure and being important since it interferes with transmission of bacterial resistance.
(§2) Phenotype symbols according Novick et al. (1976) were used.
(§3) The following antibiotics were used: streptomycin (Sm), tetracycline (Tc), ampicillin (Ap), kanamycin (Km) and rifampicin (Rif). Compound I in 1 and 10 mcg/ml concentrations was used in the transfer mixtures. • - Microorganisms were grown in Nutrient Broth (B.B.L.), NB, or in Nutrient Agar or Mc Conkey Agar (B.B.L.). Appropriate antibiotic concentrations were added to the selection plates. Sm 10, Tc 10, Ap 30, Km 30, Rif 100 and Nal 50. • - Bacterial strains were incubated till 2.5 x 10^8 cells/ml of nutrient broth exponential phase, and crossed in a donor/recipient 1:5 ratio in 2 x broth during 18 hours at 37°C. On the other hand, in the interrupted crosses, the bacteria were stirred by means of the Vortex apparatus for 1 minute after 1 h cross. • - About one hundred colonies, which could growth on the selection plates (containing the various antibiotics) were checked for the resistance spectrum by "replica plating". • - The transfer frequence was expressed as the number of resistent recipients in comparison with the number of donors in the mating mixtures, at the plating time. The inhibition rate of plasmid transfer was evaluated in tests in which, in the mating mixtures, compound I was present in 1 or 10 mcg/ml concentrations.
(§4) The activity of compound I was tested in different cross systems between E. coli x E. coli.

Series [2] concerns UR10(R446)xZM46 (plasmid R446, Inc M). Kind of series: Inhibition of plasmid transfer by conjugation. As to conditions: Escherichia coli. Format: cell-based, E. coli.
Text: as §1, §2, §3, §4

Series [3] has as its system CSH50(RP4)xZM46 (plasmid RP4, Inc P). Kind of series: Inhibition of plasmid transfer by conjugation. In kind it is cell-based, E. coli. Conditions: Escherichia coli.
Text: as §1, §2, §3, §4

In series [4] the test system is Serratia marcescens. Nature of the series: Minimal inhibitory concentrations (MIC) against amoxicillin resistant bacteria (Table 1). In kind it is cell-based. Conditions: 2 strains.
The subject of series [5] is Serratia marcescens. Kind of series: In vitro antibacterial activity (MIC), compound I versus 1:1 combination with amoxicillin (Table 3). Format: cell-based. As to conditions: 2 strains, average value, compound I alone.
The next series has as its system B-lactamases. Nature of the series: Stability to B-lactamases. Format: in vitro ADME.
The subject of series [6] is Staph. albus. Kind of series: In vitro antibacterial activity (MIC), compound I versus 1:1 combination with amoxicillin (Table 3). In kind it is cell-based. Conditions: 1 strain, compound I alone.
The next series relates to Enterob. cloacee. Described as above. In kind it is cell-based. As to conditions: 2 strains, average value, compound I alone.
In series [7] the test system is E. coli. The series is described as above. Format: cell-based. Conditions: Escherichia coli, 2 strains, average value, compound I alone.
The test system of series [8] is Staph. albus. Kind of series: Minimal inhibitory concentrations (MIC) against amoxicillin resistant bacteria (Table 1). Format: cell-based. As to conditions: 1 strain.
The subject of the next series is Staph. aureus CH1. The description is as above. In kind it is cell-based. As to conditions: Staphylococcus aureus, Staph. aureus CH1, 1 strain.
Another series has as its system Proteus rettgeri. Nature of the series: In vitro antibacterial activity (MIC), compound I versus 1:1 combination with amoxicillin (Table 3). In kind it is cell-based. As to conditions: Providencia rettgeri, 1 strain, compound I alone.
In the next series the test system is Pseudomonas aeruginosa. Described as above. In kind it is cell-based. Conditions: 5 strains, average value, compound I alone.
The subject of series [9] is B-lactamases from both Gram-positive and Gram-negative bacteria. Kind of series: Inhibitory activity against B-lactamases. Format: biochemical. Conditions: dosage of 100 δ. Here is the method:
(§5) In order to further evaluate its therapeutic potentiality, compound I was tested for any inhibitory activity against B-lactamases.

Series [10] has as its system tryptic enzymes (trypsin, pepsin, etc.). Kind of series: Stability to tryptic enzymes. In kind it is in vitro ADME.
Series [11] has as its system E. coli. Nature of the series: Minimal inhibitory concentrations (MIC) against amoxicillin resistant bacteria (Table 1). Format: cell-based. Conditions: Escherichia coli, 6 strains.
Another series relates to Staph. aureus coag. pos. The description is as above. Format: cell-based. Conditions: Staphylococcus aureus, 4 strains.
The subject of a further series is Salmonella enteriditis. Nature of the series: In vitro antibacterial activity (MIC), compound I versus 1:1 combination with amoxicillin (Table 3). In kind it is cell-based. Conditions: 2 strains, average value, compound I alone.
Series [12] concerns ß-Lactamase isolated from: B. cereus. Nature of the series: Inhibition of hydrolysis rates of ß-lactamases. Format: biochemical. Here is the method: as §5
The subject of series [13] is ß-Lactamase isolated from: E. coli. Nature of the series: Inhibition of hydrolysis rates of ß-lactamases. Format: biochemical. As for the experimental part: as §5
In a further series the test system is Proteus mirabilis. Nature of the series: Minimal inhibitory concentrations (MIC) against amoxicillin resistant bacteria (Table 1). In kind it is cell-based. As to conditions: 3 strains.
The subject of the next series is Pseudomas aeruginosa. Described as above. In kind it is cell-based. As to conditions: 5 strains.
In the next series the test system is Klebsiella pneumoniae. Nature of the series: In vitro antibacterial activity (MIC), compound I versus 1:1 combination with amoxicillin (Table 3). Format: cell-based. Conditions: 4 strains, average value, compound I alone.
Series [14] has as its system Gram-positive and Gram-negative strains resistant to amoxicillin alone. Nature of the series: MIC of amoxicillin alone against the resistant strains of Table 3. Format: cell-based.

Structures are written as SMILES. ≈ marks a conversion by molar mass, not a printed value.

Broadly, the MIC is the smallest concentration in the dilution series that meets the test's criterion for growth inhibition. As a reminder, the inhibition is the share of the control response that was lost under treatment. As a reminder, the % inhibition is the change of the read-out against control, counted positive when it falls. High values mean strong suppression, low ones little suppression. Take `CCn1cc(C(=O)NC(C(=O)NC2C(=O)N3C2SC(C)(C)C3C(=O)O)c2ccc(O)cc2)c(=O)c2ccc(C)nc21` [Compound I, D-(-)-α-[(1-ethyl-1,4-dihydro-7-methyl-4-oxo-1,8-naphthyridine-3-carboxyamido)-α-(p-hydroxyphenyl)-acetamido]penicil lanic acid]: the MIC with Staph. aureus is 10.3 µg/mL; in the series on Citrob. freundii, 100 µg/mL; in the series with Serratia marcescens [4] it was 50 µg/mL (≈ 86.3 µM); in the series with Serratia marcescens [5], 50 µg/mL; in the series on Staph. albus [6], 6.25 µg/mL; with Enterob. cloacee, 100 µg/mL. Moreover, the MIC stood at 75 µg/mL in the series on E. coli [7]; 6.25 µg/mL (≈ 10.8 µM) in the series on Staph. albus [8]; 1.56 µg/mL (≈ 2.69 µM) with Staph. aureus CH1; 50 µg/mL in the series on Proteus rettgeri; 50 µg/mL in the series with Pseudomonas aeruginosa; 25 µg/mL (≈ 43.1 µM) against E. coli [11]. Besides, the MIC against Staph. aureus coag. pos. is 3.12 µg/mL (≈ 5.38 µM); in the series with Salmonella enteriditis, 100 µg/mL; against Proteus mirabilis, 25 µg/mL (≈ 43.1 µM); in the series on Pseudomas aeruginosa, 50 µg/mL (≈ 86.3 µM); in the series on Klebsiella pneumoniae, 87.5 µg/mL. The results for the inhibition at 1 µg/mL in series [1], in series [2] and in series [3] were 40.2%, 19.1% and 36.4%, respectively. Also, the inhibition at 10 µg/mL in series [1] amounted to 69.7%; in series [2], 74.5%; in [3] it was 66.2%. Moreover, the “stability to B-lactamases” value with B-lactamases is listed as “stable to B-lactamases”. Also, the “inhibition of enzymatic activity of B-lactamases” value in series [9] is given as “completely inhibiting any enzymatic activity”. In addition, the “stability to tryptic enzymes (trypsin, pepsin, etc.)” value in [10] is listed as “stable to tryptic enzymes”. The “% inhibition” value in series [12] (Conc. 50 γ/ml) came out at 50%; in series [12] (Conc. 75 γ/ml) it was 90%; in series [12] (Conc. 100 γ/ml), 100%; in series [13] (Conc. 50 γ/ml) it was 50%; in series [13] (Conc. 75 γ/ml), 90%; in [13] (Conc. 100 γ/ml) it was 100%.

For the molecule `CC1(C)S[C@@H]2[C@H](NC(=O)[C@H](N)c3ccc(O)cc3)C(=O)N2[C@H]1C(=O)O` [amoxicillin], the MIC in [14] was no less than 800 µg/mL.
